Test results as given in US20150278438A1, “GENETIC PREDICTORS OF RESPONSE TO TREATMENT WITH CRHR1 ANTAGONISTS” (MAX-PLANCK-GESELLSCHAFT ZUR FÖRDERUNG DER WISSENSCHAFTEN …, priority 2012, published 2015).

Columns and labels:
[1] = test system: CRH-COE^CNS mice; experiment: Sleep EEG/EMG recording of REMS activity in CRH-COE^CNS mice treated with CRH-R1 antagonist; format: in vivo, mouse; conditions: 50 mg/kg/d via drinking water; for REMS activity: CRH-COE^CNS mice, versus baseline, significant beginning with treatment day two (DMP-696 P<0.05; SSR125543 P≦0.035)
Method: Experiments were conducted with two different mouse lines of excessive central CRH secretion and their respective control littermates (CL). Mice of the CRH-COE^CNS line are characterised by CRH-overexpression within the whole CNS, whereas mice of the Cor26 CRH line display a CRH-overexpression specific to CRH-ergic neurons of the CNS. Three different CRHR1 antagonists were tested. […] In all cases, animals were left to recover from EEG/EMG-electrode implantation for two weeks, after which two days of baseline recording were initiated. Treatment with CRH-R1 antagonist or respective vehicle control commenced thereafter for five consecutive days. Antagonists were applied through the drinking water at a daily dose of 50 mg/kg body weight. EEG and EMG recordings were manually scored as wake, non-REMS (NREMS), and REMS in four second epochs by an experienced evaluator.

[2] = test system: mice overexpressing CRH in the forebrain; conditions: Kimura et al. 2010; cited from earlier work
[3] = test system: Cor26 CRH mice; experiment: Sleep EEG/EMG recording of REMS levels in Cor26 CRH mice treated with CRH-R1 antagonist; conditions: 50 mg/kg/d via drinking water; for REMS levels: CRH-overexpressing Cor26 CRH mice

Row | Compound | REMS activity, treatment day three ([1]; CRH-COE^CNS animals, treatment day three) | REMS activity ([1]; 50 mg/kg/day) | REMS activity ([1]; listed as DMP696, 50 mg/kg/day) | REM enhancement [2] | REMS levels ([3]; 50 mg/kg/day) | REMS levels ([3]; listed as CP-316311, 50 mg/kg/day) | REMS levels, area under the curve (AUC) within the light period, baseline versus treatment day three ([3]; Cor26 CRH mice, P=0.006)
1 | COCC(COC)Nc1nc(C)nc2c(-c3ccc(Cl)cc3Cl)c(C)nn12 [DMP-696] | strongest suppression | significant decrease | suppressed | reverse the REM enhancement | – | – | –
2 | CCC(CC)Oc1cc(C)nc(Oc2c(C)cc(C)cc2C)c1C [CP-316,311] | – | – | – | – | apparently seemed weak | suppressed | significant decrease
